Values joined by “and” are separate entries in the source; they are usually repeats but may differ in a detail not shown here. Equal values may be shown once. Toxic doses and inconclusive results are not listed. No stated cut-off is given here; in the data, active means T/C of 150% or more; inactive means T/C below 125%.
Test system: L1210 leukemia ip in BDF1 mice, survival T/C
Assay: NCI In Vivo Anticancer Drug Screen. Data for tumor model L1210 Leukemia (intraperitoneal) in B6D2F1 (BDF1) mice
Details: endpoint: mean survival time, higher = longer survival
Method in brief: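 Transplantable tumor model; survival measured in treated vs vehicle control mice. Value = treated/control.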

[1] = dose: 100.0 mg/kg/injection, schedule: Q01DX001 (ip), vehicle: Klucel (hydroxypropylcellulose) (HPC)
[2] = dose: 100.0 mg/kg/injection, schedule: Q04DX003 (ip), vehicle: Klucel (hydroxypropylcellulose) (HPC)
[3] = dose: 200.0 mg/kg/injection, schedule: Q01DX001 (ip), vehicle: Klucel (hydroxypropylcellulose) (HPC)
[4] = dose: 200.0 mg/kg/injection, schedule: Q04DX003 (ip), vehicle: Klucel (hydroxypropylcellulose) (HPC)
[5] = dose: 400.0 mg/kg/injection, schedule: Q01DX001 (ip), vehicle: Klucel (hydroxypropylcellulose) (HPC)
[6] = dose: 400.0 mg/kg/injection, schedule: Q04DX003 (ip), vehicle: Klucel (hydroxypropylcellulose) (HPC)
[7] = dose: 100.0 mg/kg/injection, schedule: Q01DX009 (ip), vehicle: Klucel (hydroxypropylcellulose) (HPC)
[8] = dose: 200.0 mg/kg/injection, schedule: Q01DX009 (ip), vehicle: Klucel (hydroxypropylcellulose) (HPC)
[9] = dose: 400.0 mg/kg/injection, schedule: Q01DX009 (ip), vehicle: Klucel (hydroxypropylcellulose) (HPC)
[10] = dose: 100.0 mg/kg/injection, schedule: Q01DX001 (ip), vehicle: carboxymethylcellulose (CMC)
[11] = dose: 200.0 mg/kg/injection, schedule: Q01DX001 (ip), vehicle: carboxymethylcellulose (CMC)
[12] = dose: 400.0 mg/kg/injection, schedule: Q01DX001 (ip), vehicle: carboxymethylcellulose (CMC)
[13] = dose: 100.0 mg/kg/injection, schedule: Q01DX009 (ip), vehicle: saline
[14] = dose: 200.0 mg/kg/injection, schedule: Q01DX009 (ip), vehicle: saline
[15] = dose: 400.0 mg/kg/injection, schedule: Q01DX009 (ip), vehicle: saline
[16] = dose: 12.5 mg/kg/injection, schedule: Q04DX002 (ip), vehicle: saline
[17] = dose: 50.0 mg/kg/injection, schedule: Q01DX001 (ip), vehicle: saline
[18] = dose: 100.0 mg/kg/injection, schedule: Q01DX001 (ip), vehicle: saline
[19] = dose: 200.0 mg/kg/injection, schedule: Q01DX001 (ip), vehicle: saline
[20] = dose: 400.0 mg/kg/injection, schedule: Q01DX001 (ip), vehicle: saline
[21] = dose: 100.0 mg/kg/injection, schedule: Q04DX003 (ip), vehicle: saline
[22] = dose: 200.0 mg/kg/injection, schedule: Q04DX003 (ip), vehicle: saline
[23] = dose: 400.0 mg/kg/injection, schedule: Q04DX003 (ip), vehicle: saline
[24] = dose: 100.0 mg/kg/injection, schedule: Q01DX001 (ip), vehicle: saline with Tween-80
[25] = dose: 100.0 mg/kg/injection, schedule: Q04DX003 (ip), vehicle: saline with Tween-80
[26] = dose: 200.0 mg/kg/injection, schedule: Q04DX003 (ip), vehicle: saline with Tween-80
[27] = dose: 400.0 mg/kg/injection, schedule: Q04DX003 (ip), vehicle: saline with Tween-80

Measured: T/C

c1ccc2c(c1)C(=NOc1nc3ccccc3c3ccccc13)c1ccccc1-2
inactive: [1] 96 % of control | [2] 93 % of control | [3] 91 % of control | [4] 95 % of control | [5] 86 % of control | [6] 99 % of control

O=C(N/N=C/c1c[nH]c2ccccc12)C1CCCO1 (stereo not given)
inactive: [7] 98 % of control | [8] 98 % of control | [9] 94 % of control

Cc1ccc(S(=O)(=O)N(Cc2ccccc2[N+](=O)[O-])c2ccccc2)cc1
inactive: [10] 103 % of control | [11] 100 % of control | [12] 103 % of control

C1CN(CCN2CCOCC2)CCO1
inactive: [13] 100 % of control | [14] 93 % of control | [15] 96 % of control

CCCNC(c1ccccc1)=[N+]1C(C)CCCC1C (stereo not given)
inactive: [16] 101 % of control | dose: 25.0 mg/kg/injection, schedule: Q04DX002 (ip), vehicle: saline 109 % of control

CCOc1cccnc1/C=N/NC(N)=S
inactive: [17] 106 % of control | [18] 102 % of control | [19] 100 % of control | [20] 108 % of control

COc1cccc([Si](C)(C)[Si](C)C)c1
inactive: [21] 98 % of control | [22] 110 % of control | [23] 96 % of control

CCCCN=Cc1ccccc1O.CCCCN=Cc1ccccc1O.[Cu]
inactive: dose: 6.25 mg/kg/injection, schedule: Q01DX009 (ip), vehicle: Klucel (hydroxypropylcellulose) (HPC) 91 % of control | dose: 12.5 mg/kg/injection, schedule: Q04DX002 (ip), vehicle: Klucel (hydroxypropylcellulose) (HPC) 107 % of control | dose: 25.0 mg/kg/injection, schedule: Q01DX009 (ip), vehicle: Klucel (hydroxypropylcellulose) (HPC) 97 % of control | dose: 25.0 mg/kg/injection, schedule: Q04DX002 (ip), vehicle: Klucel (hydroxypropylcellulose) (HPC) 89 % of control | dose: 100.0 mg/kg/injection, schedule: Q04DX002 (ip), vehicle: Klucel (hydroxypropylcellulose) (HPC) 104 % of control

Cc1ccc(S(=O)(=O)OCC2C3C=CC(C3)C2COS(=O)(=O)c2ccc(C)cc2)cc1 (stereo not given)
inactive: [7] 92 % of control | [2] 95 % of control | [8] 97 % of control | [4] 98 % of control | [9] 98 % of control | [6] 95 % of control

CC1=C(N2CC2)C(=O)c2ccccc2C1=O
inactive: dose: 12.5 mg/kg/injection, schedule: Q04DX003 (ip), vehicle: Klucel (hydroxypropylcellulose) (HPC) 98 % of control | dose: 25.0 mg/kg/injection, schedule: Q04DX003 (ip), vehicle: Klucel (hydroxypropylcellulose) (HPC) 102 % of control | dose: 50.0 mg/kg/injection, schedule: Q04DX003 (ip), vehicle: Klucel (hydroxypropylcellulose) (HPC) 102 % of control | [1] 102 % of control | [2] 102 % of control

CC(=O)NC(c1ccccc1)C(C)C (stereo not given)
inactive: [24] 92 % of control | dose: 200.0 mg/kg/injection, schedule: Q01DX001 (ip), vehicle: saline with Tween-80 103 % of control

NC1CC(C(=O)O)CCC1S (stereo not given)
inactive: [16] 106 % of control | dose: 50.0 mg/kg/injection, schedule: Q04DX002 (ip), vehicle: other 94 % of control | dose: 50.0 mg/kg/injection, schedule: Q04DX002 (ip), vehicle: saline 87 % of control | dose: 100.0 mg/kg/injection, schedule: Q04DX002 (ip), vehicle: other 91 % of control

CCCCCCCCCCCC(=O)NC(=S)Nc1ccc2ccccc2c1
inactive: [2] 86 % of control | [4] 86 % of control | [6] 86 % of control

CCCCN(CCCC)CC(O)c1cc(Cc2ccccc2)nc2c(Cl)cc(Cl)cc12 (stereo not given)
inactive: [25] 89 % of control | [26] 100 % of control | [27] 100 % of control

CN(C)c1ccc(N=Cc2cc[n+](C)cc2)cc1
inactive: dose: 25.0 mg/kg/injection, schedule: Q01DX009 (ip), vehicle: saline 92 % of control | dose: 50.0 mg/kg/injection, schedule: Q01DX009 (ip), vehicle: saline 100 % of control | [21] 87 % of control

CC(=O)OC1/C=C/C(C)=C/CC(O)/C=C/C(C)=C/C(NC(=O)C(C)=O)C2(C)C(=O)OC(C1)C(C)C2=O (stereo not given)
inactive: dose: 25.0 mg/kg/injection, schedule: Q01DX001 (ip), vehicle: saline with Tween-80 102 % of control | dose: 25.0 mg/kg/injection, schedule: Q01DX009 (ip), vehicle: saline with Tween-80 101 % of control | dose: 50.0 mg/kg/injection, schedule: Q01DX001 (ip), vehicle: saline with Tween-80 94 % of control | dose: 50.0 mg/kg/injection, schedule: Q01DX009 (ip), vehicle: saline with Tween-80 104 % of control | [24] 97 % of control | dose: 100.0 mg/kg/injection, schedule: Q01DX009 (ip), vehicle: saline with Tween-80 103 % of control

CCCCCCc1cc(N=Nc2ccc(S(=O)(=O)Nc3cc(C)nc(C)n3)cc2)c(O)cc1O
inactive: [10] 101 % of control | [11] 95 % of control | [12] 95 % of control

CC(=O)Oc1c(C)c(Br)c(OC(C)=O)c(-c2c(C)cc(C)c(Br)c2C)c1Br
inactive: [1] 87 % of control | [2] 100 % of control | [3] 95 % of control | [4] 95 % of control | [5] 95 % of control | [6] 101 % of control

CCn1ccc2c(N)ncnc21
inactive: [17] 95 % of control

Cc1cc(NCC(O)C(O)C(O)CO)c(C(=O)NN)cc1C (stereo not given)
inactive: [18] 101 % of control | [19] 96 % of control | [20] 95 % of control

CCOC(=O)c1cnc(SC)nc1Nc1ccc(C)cc1
inactive: [25] 97 % of control | [26] 91 % of control | [27] 86 % of control

CNCCO
inactive: [13] 97 % of control | [21] 96 % of control | [14] 92 % of control | [22] 98 % of control | [15] 97 % of control | [23] 102 % of control

COc1ccc(C(O)(c2ccc(OC)cc2)c2ccccn2)cc1
inactive: [25] 95 % of control | [26] 102 % of control | [27] 91 % of control

Cc1cccc(NC(=O)Nc2ccc(Cl)cc2)c1C
inactive: dose: 100.0 mg/kg/injection, schedule: Q01DX009 (ip), vehicle: gum acacia 100 % of control | dose: 100.0 mg/kg/injection, schedule: Q04DX003 (ip), vehicle: gum acacia 95 % of control | dose: 200.0 mg/kg/injection, schedule: Q01DX009 (ip), vehicle: gum acacia 100 % of control | dose: 200.0 mg/kg/injection, schedule: Q04DX003 (ip), vehicle: gum acacia 95 % of control | dose: 400.0 mg/kg/injection, schedule: Q01DX009 (ip), vehicle: gum acacia 92 % of control | dose: 400.0 mg/kg/injection, schedule: Q04DX003 (ip), vehicle: gum acacia 97 % of control

CN1C(=O)CN=C(c2ccccn2)c2cc(Cl)ccc21
inactive: dose: 100.0 mg/kg/injection, schedule: Q01DX001 (ip), vehicle: saline sonified 112 % of control | dose: 200.0 mg/kg/injection, schedule: Q01DX001 (ip), vehicle: saline sonified 96 % of control | dose: 400.0 mg/kg/injection, schedule: Q01DX001 (ip), vehicle: saline sonified 103 % of control

Cc1ccc2c(c1)Oc1ccccc1S2
inactive: dose: 100.0 mg/kg/injection, schedule: Q04DX002 (ip), vehicle: saline with Tween-80 96 % of control | dose: 200.0 mg/kg/injection, schedule: Q04DX002 (ip), vehicle: saline with Tween-80 103 % of control | dose: 400.0 mg/kg/injection, schedule: Q04DX002 (ip), vehicle: saline with Tween-80 103 % of control

Nc1ccccc1SC1CC(=O)N(c2ccc(Br)cc2Cl)C1=O (stereo not given)
inactive: dose: 50.0 mg/kg/injection, schedule: Q01DX009 (ip), vehicle: Klucel (hydroxypropylcellulose) (HPC) 90 % of control and 92 % of control | [7] 91 % of control | [2] 98 % of control | [8] 93 % of control and 96 % of control and 91 % of control | [4] 93 % of control | [9] 96 % of control | [6] 93 % of control

Source: PubChem BioAssay AID248 (DTP/NCI, 2004)
